Experiment [1] has as its target T1, PLK1 (Homo sapiens, UniProt P53350). Put plainly: In vitro PLK1 ELISA assay (biochemical). Further details: purchased Cell Signalling 7728. The method in brief: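 Commercial PLK1 phosphorylates neutravidin-captured biotinylated CHK2 peptide for 45 min at room temperature in HEPES pH 7.2 with Mg2+/Mn2+/DTT, compounds at 10 μM to 0.005 μM. Phospho-CHK2(T68) antibody plus HRP secondary gives chemiluminescent read-out used for IC50.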
Background: ELISA stands for enzyme-linked immunosorbent assay.

Experiment [2] has as its target T1, PLK1. Put plainly: Cellular PLK1 assay in K562 cells overexpressing CDC25C. Type of experiment: cell-based. Further details: endogenous in cells; host or cells: K562 (human chronic myelogenous leukemia) overexpressing CDC25C, nocodazole-arrested. To be noted: nocodazole arrested, cdc25c p-Ser198 readout. The method in brief: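 K562 cells overexpressing CDC25C were arrested with 333 nM nocodazole for 18 h at 37 °C, then exposed to compound at 8 points from 10 μM to 0.005 μM in duplicate for 120 min. After fixation and permeabilization, cells were stained for cdc25c pSer198 with a PE secondary and read by flow cytometry, 10,000 cells per well.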

Where [3] appears, read: ELISA, CHK2-derived peptide substrate, read-out: PLK1 IC50 (μM) biochemical assay.
Where [4] appears, read: read-out: IC50 in biochemical in vitro PLK1 ELISA assay (less than 10 μM).
Where [5] appears, read: read-out: IC50 in biochemical ELISA assay (less than 0.01 μM).

This passage reports IC50 results from patent US9040527B2, “Pyrimidinediamine kinase inhibitors” (Rigel Pharmaceuticals, Inc., priority 2008, dated 2015).

T1 sequence (P53350 whole entry): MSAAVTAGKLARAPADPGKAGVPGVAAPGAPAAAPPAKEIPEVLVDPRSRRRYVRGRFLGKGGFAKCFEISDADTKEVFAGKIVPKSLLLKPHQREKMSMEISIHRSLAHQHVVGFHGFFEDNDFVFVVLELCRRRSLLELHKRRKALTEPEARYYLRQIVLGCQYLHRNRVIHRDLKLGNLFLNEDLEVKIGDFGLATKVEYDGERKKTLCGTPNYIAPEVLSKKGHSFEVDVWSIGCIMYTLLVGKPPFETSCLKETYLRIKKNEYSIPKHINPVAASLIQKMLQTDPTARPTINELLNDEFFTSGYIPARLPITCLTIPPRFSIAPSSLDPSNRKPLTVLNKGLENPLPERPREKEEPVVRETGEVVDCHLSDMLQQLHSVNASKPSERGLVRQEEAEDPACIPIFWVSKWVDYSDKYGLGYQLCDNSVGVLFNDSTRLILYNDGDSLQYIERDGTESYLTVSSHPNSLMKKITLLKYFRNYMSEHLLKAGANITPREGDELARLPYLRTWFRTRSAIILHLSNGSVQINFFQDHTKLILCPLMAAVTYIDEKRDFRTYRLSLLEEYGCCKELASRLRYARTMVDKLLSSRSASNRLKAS

One may read the IC50 as the concentration needed to halve the response being measured. For `CCCN1CCOc2ccc(Nc3nc(Nc4ccc(N5CC6CC5CN6S(C)(=O)=O)c(C)c4)ncc3F)nc21` (stereo not shown) [compound 28, 5-fluoro-N2-(3-methyl-4-(5-(methylsulfonyl)-2,5-diaza-bicyclo[2.2.1]heptan-2-yl)phenyl)-N4-(4-propyl-3,4-dihydro-2H-pyrido[3,2-b][1,4]oxazin-6-yl)pyrimidine-2,4-diamine], the IC50 at PLK1 [1] (setting [3]) was 0.5 to 5 µM; on PLK1 [1] (setting [4]), less than 10 µM; against PLK1 [2] it was 0.5 to 5 µM.

As for `CCCN1CCOc2ccc(Nc3nc(Nc4ccc(N5CC6CC5CN6S(C)(=O)=O)c(C)c4)ncc3C)nc21` (stereo not shown) [compound 33, 5-methyl-N2-(3-methyl-4-(5-(methylsulfonyl)-2,5-diazabicyclo[2.2.1]heptan-2-yl)phenyl)-N4-(4-propyl-3,4-dihydro-2H-pyrido[3,2-b][1,4]oxazin-6-yl)pyrimidine-2,4-diamine], the IC50 is less than 0.5 µM on PLK1 [1] (setting [3]), less than 10 µM on PLK1 [1] (setting [4]) and 0.5 to 5 µM against PLK1 [2].

For `CN1CCN(c2cccc(Nc3nccc(Nc4ccc5c(n4)NCCO5)n3)c2)CC1` [compound 21, N4-(3,4-dihydro-2H-pyrido[3,2-b][1,4]oxazin-6-yl)-N2-(3-(4-methylpiperazin-1-yl)phenyl)pyrimidine-2,4-diamine], the IC50 was less than 0.5 µM on PLK1 [1] (setting [3]), less than 10 µM on PLK1 [1] (setting [4]) and no less than 10 µM against PLK1 [2].

On to `Cc1cnc(Nc2cccc(N3CCN(C)CC3)c2)nc1Nc1ccc2c(n1)N(CC1CCC1)C(=O)CO2` [compound 130, 4-(cyclobutylmethyl)-6-(5-methyl-2-(3-(4-methylpiperazin-1-yl)phenylamino)pyrimidin-4-ylamino)-2H-pyrido[3,2-b][1,4]oxazin-3(4H)-one], for which the IC50 on PLK1 [1] (setting [3]) was less than 0.5 µM; on PLK1 [1] (setting [5]), less than 0.01 µM; at PLK1 [1] (setting [4]), less than 10 µM; against PLK1 [2] it was 0.5 to 5 µM.

For `O=C1COc2ccc(Nc3nc(Nc4cccc(N5CCNCC5)c4)ncc3F)cc2N1` [compound 18, 6-(5-fluoro-2-(3-(piperazin-1-yl)phenylamino)pyrimidin-4-ylamino)-2H-benzo[b][1,4]oxazin-3(4H)-one], the figures for the IC50 on PLK1 [1] (setting [3]), at PLK1 [1] (setting [4]) and at PLK1 [2] were less than 0.5 µM, less than 10 µM and 0.5 to 5 µM, respectively.

With `Cc1cc(Nc2ncc(C)c(Nc3ccc4c(n3)N(CC3CCCCC3)C(=O)CO4)n2)ccc1N1CCN(C)CC1` [compound 119, 4-(cyclohexylmethyl)-6-(5-methyl-2-(3-methyl-4-(4-methylpiperazin-1-yl)phenylamino)pyrimidin-4-ylamino)-2H-pyrido[3,2-b][1,4]oxazin-3(4H)-one], the IC50 at PLK1 [1] (setting [3]) and against PLK1 [2] was no less than 10 µM in each case.

With `CN1CCN(c2cccc(Nc3ncc(C(F)(F)F)c(Nc4ccc5c(n4)NCCO5)n3)c2)CC1` [compound 55, N4-(3,4-dihydro-2H-pyrido[3,2-b][1,4]oxazin-6-yl)-N2-(3-(4-methyl-piperazin-1-yl)phenyl)-5-(trifluoro-methyl)pyrimidine-2,4-diamine], the IC50 on PLK1 [1] (setting [3]) was less than 0.5 µM; on PLK1 [1] (setting [5]), less than 0.01 µM; at PLK1 [1] (setting [4]), less than 10 µM; at PLK1 [2] it was less than 0.5 µM.

Regarding `Cc1cc(Nc2ncc(F)c(Nc3ccc4c(n3)N(CC3CCCCC3)C(=O)CO4)n2)ccc1N1CCN(C)CC1` [compound 113, 4-(cyclohexylmethyl)-6-(5-fluoro-2-(3-methyl-4-(4-methylpiperazin-1-yl)phenylamino)pyrimidin-4-ylamino)-2H-pyrido[3,2-b][1,4]oxazin-3(4H)-one], the IC50 at PLK1 [1] (setting [3]) and against PLK1 [2] was no less than 10 µM throughout.

Regarding `CCCN1C(=O)COc2ccc(Nc3nc(Nc4ccc(N5CCNCC5)c(C(F)(F)F)c4)ncc3F)nc21` [compound 138, 6-(5-fluoro-2-(4-(piperazin-1-yl)-3-(trifluoromethyl)phenyl-amino)pyrimidin-4-ylamino)-4-propyl-2H-pyrido[3,2-b][1,4]oxazin-3(4H)-one], the IC50 on PLK1 [1] (setting [3]) and at PLK1 [2] was no less than 10 µM throughout.

`CN1CCN(c2ccc(C3CC3)c(Nc3ncc(F)c(Nc4ccc5c(n4)NCCO5)n3)c2)CC1` [compound 34, N2-(2-cyclopropyl-5-(4-methylpiperazin-1-yl)phenyl)-N4-(3,4-dihydro-2H-pyrido[3,2-b][1,4]oxazin-6-yl)-5-fluoropyrimidine-2,4-diamine]: the IC50 on PLK1 [1] (setting [3]) is less than 0.5 µM; on PLK1 [1] (setting [4]), less than 10 µM; at PLK1 [2], less than 0.5 µM.

For `CCOc1ccc(N2CCN(C)CC2)cc1Nc1ncc(F)c(Nc2ccc3c(n2)NCCO3)n1` [compound 45, N4-(3,4-dihydro-2H-pyrido[3,2-b][1,4]oxazin-6-yl)-N2-(2-ethoxy-5-(4-methylpiperazin-1-yl)phenyl)-5-fluoro-pyrimidine-2,4-diamine], the IC50 at PLK1 [1] (setting [3]) is less than 0.5 µM; at PLK1 [1] (setting [4]), less than 10 µM; against PLK1 [2], less than 0.5 µM.

Regarding `CN1CCN(c2cccc(Nc3ncc(F)c(Nc4ccc5c(n4)NCCO5)n3)c2)CC1` [compound 167, N4-(3,4-dihydro-2H-pyrido[3,2-b][1,4]oxazin-6-yl)-5-fluoro-N2-(3-(4-methylpiperazin-1-yl)phenyl)pyrimidine-2,4-diamine], the IC50 is less than 0.5 µM at PLK1 [1] (setting [3]), less than 10 µM at PLK1 [1] (setting [4]) and less than 0.5 µM against PLK1 [2].

With `CCC(CC)N1C(=O)COc2ccc(Nc3nc(Nc4cccc(N5CCN(C)CC5)c4)ncc3F)nc21` [compound 134, 6-(5-fluoro-2-(3-(4-methylpiperazin-1-yl)phenylamino)pyrimidin-4-ylamino)-4-(pentan-3-yl)-2H-pyrido[3,2-b][1,4]oxazin-3(4H)-one], the IC50 at PLK1 [1] (setting [3]) is less than 0.5 µM; at PLK1 [1] (setting [5]) it was less than 0.01 µM; at PLK1 [1] (setting [4]), less than 10 µM; against PLK1 [2], less than 0.5 µM.

With `CN1CCN(c2cccc(Nc3ncc(F)c(Nc4ccc5c(c4)NC(=O)CO5)n3)c2)CC1` [compound 17, 6-(5-fluoro-2-(3-(4-methylpiperazin-1-yl)phenylamino)pyrimidin-4-ylamino)-2H-benzo[b][1,4]oxazin-3(4H)-one], the IC50 on PLK1 [1] (setting [3]) is less than 0.5 µM; on PLK1 [1] (setting [5]) it was less than 0.01 µM; at PLK1 [1] (setting [4]) it was less than 10 µM; on PLK1 [2], 0.5 to 5 µM.

In the case of `Cc1cc(Nc2ncc(C)c(Nc3ccc4c(n3)N(CC3CCC3)C(=O)CO4)n2)ccc1N1CCN(C)CC1` [compound 115, 4-(cyclobutylmethyl)-6-(5-methyl-2-(3-methyl-4-(4-methylpiperazin-1-yl)phenylamino)pyrimidin-4-ylamino)-2H-pyrido[3,2-b][1,4]oxazin-3(4H)-one], the IC50 at PLK1 [1] (setting [3]) was 0.5 to 5 µM; at PLK1 [1] (setting [4]), less than 10 µM; at PLK1 [2], no less than 10 µM.

For the compound `CCCN1C(=O)COc2ccc(Nc3nc(Nc4ccc(N5CC6CC5CN6C(C)=O)c(C)c4)ncc3F)nc21` (stereo not shown) [compound 35, 6-(2-(4-(5-acetyl-2,5-diazabicyclo[2.2.1]heptan-2-yl)-3-methylphenylamino)-5-fluoropyrimidin-4-ylamino)-4-propyl-2H-pyrido[3,2-b][1,4]oxazin-3(4H)-one], the IC50 at PLK1 [1] (setting [3]) was less than 0.5 µM; on PLK1 [1] (setting [4]), less than 10 µM; against PLK1 [2], 0.5 to 5 µM.

With `CN1CCN(c2cccc(Nc3ncc(F)c(Nc4ccc5c(n4)N(CC4CC4)C(=O)CO5)n3)c2)CC1` [compound 108, 4-(cyclopropylmethyl)-6-(5-fluoro-2-(3-(4-methylpiperazin-1-yl)phenylamino)pyrimidin-4-ylamino)-2H-pyrido[3,2-b][1,4]oxazin-3(4H)-one], the IC50 on PLK1 [1] (setting [3]) was less than 0.5 µM; on PLK1 [1] (setting [4]), less than 10 µM; at PLK1 [2], 0.5 to 5 µM.
